Key:
[1] = test system: ApoE−/− mouse model of arterial vulnerable plaque; assay: In vivo therapeutic effect of atorvastatin delivery systems on arterial vulnerable plaques (Experimental Example 4, carotid MRI); set-up: species or system mice; details: once every other day, 5 treatments, control progressed by 34.87%
Experimental: (§1) Except for the control group of vulnerable plaque model, the treatment group was treated once every other day for a total of 5 treatments. For animals in each group, carotid MRI scans were performed before and after treatment to detect plaque and lumen area, and the percentage of plaque progression was calculated. Percentage of plaque progression=(plaque area after treatment−plaque area before treatment)/lumen area.

[2] = test system: ApoE−/− mouse model of arterial vulnerable plaque; assay: In vivo radioisotopic tracing of vulnerable plaque (Experimental Example 8); set-up: species or system mice; details: tail vein, tracer 2 mSv/kg, imaging 2 hours after administration
Experimental: (§2) • (1) A normal saline solution of free rosuvastatin was prepared, and the liposome nano delivery systems loaded with radioisotopic tracer and therapeutic agent was prepared by the method described in the above Example 11. • (2) Establishment of ApoE−/− mouse model of arterial vulnerable plaque according to Experimental Example 4. • (3) Trace of vulnerable plaque in experimental animals:
The experimental animals were randomly divided into the following groups, 6 mice in each group: • Free F-FDG group: the dosage of F-FDG was 2 mSv/kg body weight; • LP1-(F-FDG)-OPN group: the dosage of F-FDG was 2 mSv/kg body weight; • LP1-(99mTc)-OPN group: the dosage of 99mTc was 2 mSv/kg body weight; • LP1-(I-131)-OPN group: the dosage of 1-131 was 2 mSv/kg body weight.
Animals in each experimental group were injected with the corresponding tracer through the tail vein, and radioisotopic imaging was performed before administration and 2 hours after administration to observe the identification of atherosclerotic vulnerable plaque in each group.

[3] = test system: ApoE−/− mouse model of arterial vulnerable plaque; assay: In vivo therapeutic effect of rosuvastatin delivery systems on arterial vulnerable plaques (Experimental Example 3, carotid MRI); set-up: species or system mice; details: once every other day, 5 treatments, control progressed by 36.23%
Experimental: • (1) A normal saline solution of free rosuvastatin was prepared, and the liposome nanocarrier delivery systems loaded with therapeutic agent were prepared by the method described in the above Example 1-3. • (2) Establishment of ApoE−/− mouse model of arterial vulnerable plaque:
SPF-grade ApoE−/− mice (42 mice, 5-6 weeks old, weight 20±1 g) were taken as experimental animals. The mice were fed with an adaptive high-fat diet (fat 10% (w/w), cholesterol 2% (w/w), sodium cholate 0.5% (w/w), and the rest being normal feed for mice) for 4 weeks, and then anaesthetized via intraperitoneal injection of 1% sodium pentobarbital (prepared by adding […] of sodium pentobarbital to 100 ml of normal saline) at a dose of 40 mg/kg. Then, the mice were fixed on the surgical plate in the supine position, disinfected around the neck with 75% (v/v) alcohol, the neck skin was cut longitudinally, and the anterior cervical gland was bluntly separated, and the beating left common carotid artery can be observed on the left side of the trachea. […]
as §1, with “Percentage of plaque progression=(plaque area after treatment−plaque area before treatment)/lumen area.” left out

[4] = test system: ApoE−/− mouse model of arterial vulnerable plaque; assay: In vivo therapeutic effect of LP2-(AuNP/R)-OPN on arterial vulnerable plaques (Experimental Example 5, carotid MRI); set-up: species or system mice; details: once every other day, 5 treatments, control progressed by 31.23%
Experimental: as §2, with “CT” for “radioisotopic”, “7.” for “11.”
as §1

[5] = oral, clinical practice; cited from earlier work
[6] = target: T1, CD44 on the surface of endothelial cells at arterial vulnerable plaques (Mus musculus, UniProt P15379); assay: Binding force integration of amino fluorescein labelled ligand/antibody, flow cytometry MFI, endothelial cells; set-up: species or system mice; details: normal cells set to 1; labelled ligand/antibody 10 mg/ml, 30 minutes, 37° C.
T1 construct: from tissue; host or cells: endothelial cells from arterial vulnerable plaques of model mice
T1 sequence (P15379 23-778): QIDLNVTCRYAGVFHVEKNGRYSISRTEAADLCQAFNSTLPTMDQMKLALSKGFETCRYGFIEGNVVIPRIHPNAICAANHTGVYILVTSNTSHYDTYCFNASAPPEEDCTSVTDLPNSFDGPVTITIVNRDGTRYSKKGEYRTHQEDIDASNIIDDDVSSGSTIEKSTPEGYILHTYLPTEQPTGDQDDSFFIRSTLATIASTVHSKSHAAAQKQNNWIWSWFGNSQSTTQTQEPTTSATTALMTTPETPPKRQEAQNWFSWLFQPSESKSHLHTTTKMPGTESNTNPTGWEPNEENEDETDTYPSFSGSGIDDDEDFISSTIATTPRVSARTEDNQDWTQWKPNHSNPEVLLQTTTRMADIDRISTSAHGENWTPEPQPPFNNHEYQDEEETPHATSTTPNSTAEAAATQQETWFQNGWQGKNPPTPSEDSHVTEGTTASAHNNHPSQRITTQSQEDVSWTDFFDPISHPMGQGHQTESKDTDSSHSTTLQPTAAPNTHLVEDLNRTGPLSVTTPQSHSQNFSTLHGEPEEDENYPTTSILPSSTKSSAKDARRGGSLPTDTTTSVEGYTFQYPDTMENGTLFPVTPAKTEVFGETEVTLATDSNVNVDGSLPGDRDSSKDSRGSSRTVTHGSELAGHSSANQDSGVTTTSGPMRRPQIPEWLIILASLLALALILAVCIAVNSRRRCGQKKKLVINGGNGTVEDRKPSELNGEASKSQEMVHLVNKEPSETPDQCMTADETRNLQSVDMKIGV
Experimental: Endothelial cells at normal arterial vessel walls and endothelial cells at arterial vulnerable plaques of model mice were taken, and the ligand/antibody labeled with amino fluorescein at a concentration of 10 mg/ml was added, the sample was cultured in Dulberic modified Eagle's medium (DMEM) (containing calf serum with a volume fraction of 10%, 100 U/ml penicillin, 100 U/ml streptomycin) at 37° C., in 5% CO2 incubator. After 30 minutes, the mean fluorescence intensity (MFI) was determined by flow cytometry (CytoFLEX, Beckman Coulter, U.S.A.), and the binding force integration of FL-ligand/antibody on the surface of both cells was calculated (the binding force of CD44 of endothelial cells of normal arterial vessel walls to ligand/antibody is set to 1).

[7] = target: T2, CD44 on the surface of macrophages inside arterial vulnerable plaques (Mus musculus, UniProt P15379); assay: Binding force integration of amino fluorescein labelled ligand/antibody, flow cytometry MFI, macrophages; set-up: species or system mice; details: macrophages outside the plaque set to 1; labelled ligand/antibody 10 mg/ml, 30 minutes, 37° C.
T2 construct: from tissue; host or cells: macrophages from inside arterial vulnerable plaques of model mice
T2 sequence (P15379 23-778): T1 sequence (P15379 23-778)
Experimental: Intraperitoneal macrophages and macrophages inside arterial vulnerable plaques of model mice were taken, and the ligand/antibody labeled with amino fluorescein at a concentration of 10 mg/ml was added, the sample was cultured in DMEM (containing calf serum with a volume fraction of 10%, 100 U/ml penicillin, 100 U/ml streptomycin) at 37° C., in 5% CO2 incubator.

[8] = intragastric, 10 mg rosuvastatin per kg

binding force integration of CD44 on the surface of endothelial cells at vulnerable plaques, relative to endothelial cells of normal arterial vessel walls [6] | binding force integration of CD44 on the surface of macrophages at vulnerable plaques, relative to macrophages outside the plaque [7] | Molecule | further results
– | – | CC(C)c1c(C(=O)Nc2ccccc2)c(-c2ccccc2)c(-c2ccc(F)cc2)n1CC[C@@H](O)C[C@@H](O)CC(=O)O [atorvastatin] | percentage of plaque progression ([1]; intragastric, 20 mg atorvastatin per kg): 33.21%; percentage of plaque progression ([1]; intravenous, 1.2 mg atorvastatin per kg): 32.98%
– | – | OC[C@H]1OC(O)[C@H]([18F])[C@@H](O)[C@@H]1O (stereo partly drawn) [free F-FDG, fluorine 18 (18F)-labeled fludeoxyglucose] | in vivo tracing effect on arterial vulnerable plaques (radioisotopic imaging) [2]: doesn't show any tracing effect
– | – | CC(C)c1nc(N(C)S(C)(=O)=O)nc(-c2ccc(F)cc2)c1/C=C/[C@@H](O)C[C@@H](O)CC(=O)O [rosuvastatin] | percentage of plaque progression [3, 8]: 33.9%; percentage of plaque progression ([3]; intravenous, 0.66 mg rosuvastatin per kg): 32.46%; percentage of plaque progression [4, 8]: 30.9%; percentage of plaque progression ([4]; intravenous, 0.67 mg rosuvastatin per kg): 25.34%; bioavailability when administered orally [5]: about 20%
21 times | 38 times | collagen | –
18 times | 35 times | fibronectin | –
approximately 24 times | approximately 40 times | hyaluronic acid [HA] | –
16 times | 37 times | laminin | –
17 times | 33 times | osteopontin: natural ligand for CD44 | –

Source: patent US12642875B2, “Liposomal nanocarrier delivery system for targeting active CD44 molecule, preparation method therefor, and uses thereof” (Beijing Inno Medicine Co., Ltd., priority 2018, dated 2026)
